Results published in ChEMBL document CHEMBL5260799, “Pterocarpan scaffold: A natural lead molecule with diverse pharmacological properties” (Eur J Med Chem, 2017).
Converted amounts (≈) assume the structure as drawn. One block for each compound: values may come before it.

Tests used:
KB = assay: Antiproliferative activity against human KB cells assessed as reduction in cell viability after 72 hrs by SRB assay; assay type: functional
BMDC = assay: Anti-inflammatory activity against LPS-induced C57BL/6 mouse BMDC cells assessed as inhibition of IL-12 production at 25 uM by ELISA method; assay type: functional; set-up: scale not given: the % may be the effect or the level left
[1] = Inhibition of melanin in human melanocyte; assay type: functional, cell-based
Staphylococcus aureus [2] = assay: Antibacterial activity against methicillin-resistant Staphylococcus aureus assessed as bacterial growth inhibition; assay type: functional, organism-based
HL-60 = assay: Antiproliferative activity against human HL-60 cells assessed as reduction in cell viability at 12.5 ug/ml by tryphan blue staining assay; assay type: functional; settings: dose 12.5 µg/ml
CCRF-CEM = assay: Cytotoxicity against human CCRF-CEM cells assessed as reduction in cell viability incubated for 72 hrs by MTT assay; assay type: functional, cell-based
DLD-1 = assay: Cytotoxicity against human DLD-1 cells assessed as reduction in cell proliferation incubated for 24 hrs by MTT assay; assay type: functional, cell-based; settings: DLD-1, 24 h
HeLa = assay: Cytotoxicity against human HeLa cells assessed as reduction in cell proliferation incubated for 24 hrs by MTT assay; assay type: functional, cell-based
Plasmodium falciparum [3] = assay: Antiplasmodial activity against Plasmodium falciparum D6 assessed as reduction in plasmodial growth after 48 hrs by fluorescence based analysis; assay type: functional, organism-based; settings: D6, 48 h
[4] = Cytotoxicity against mouse N9 cells assessed as reduction in cell viability incubated for 48 hrs by MTT assay; assay type: toxicity, cell-based
[5] = Cytotoxicity against mouse RAW264.7 cells assessed as increase in NO production measured after 48 hrs by MTT assay; assay type: toxicity, cell-based
MCF7 = assay: Antiproliferative activity against human MCF7 cells assessed as inhibition of cell proliferation incubated for 72 hrs by MTT assay; assay type: functional, cell-based; settings: MCF7, 72 h
[6] = Antiinflammatory activity against mouse primary bone marrow derived macrophages assessed as inhibition of COX-2 at 100 ug/ml; assay type: functional, BMDM; set-up: scale not given: the % may be the effect or the level left; settings: dose 100 µg/ml
[7] = molecular target: Prostaglandin G/H synthase 1 (Homo sapiens, UniProt P23219); assay: Inhibition of COX-1 (unknown origin)
Chain of Prostaglandin G/H synthase 1 (P23219 whole entry): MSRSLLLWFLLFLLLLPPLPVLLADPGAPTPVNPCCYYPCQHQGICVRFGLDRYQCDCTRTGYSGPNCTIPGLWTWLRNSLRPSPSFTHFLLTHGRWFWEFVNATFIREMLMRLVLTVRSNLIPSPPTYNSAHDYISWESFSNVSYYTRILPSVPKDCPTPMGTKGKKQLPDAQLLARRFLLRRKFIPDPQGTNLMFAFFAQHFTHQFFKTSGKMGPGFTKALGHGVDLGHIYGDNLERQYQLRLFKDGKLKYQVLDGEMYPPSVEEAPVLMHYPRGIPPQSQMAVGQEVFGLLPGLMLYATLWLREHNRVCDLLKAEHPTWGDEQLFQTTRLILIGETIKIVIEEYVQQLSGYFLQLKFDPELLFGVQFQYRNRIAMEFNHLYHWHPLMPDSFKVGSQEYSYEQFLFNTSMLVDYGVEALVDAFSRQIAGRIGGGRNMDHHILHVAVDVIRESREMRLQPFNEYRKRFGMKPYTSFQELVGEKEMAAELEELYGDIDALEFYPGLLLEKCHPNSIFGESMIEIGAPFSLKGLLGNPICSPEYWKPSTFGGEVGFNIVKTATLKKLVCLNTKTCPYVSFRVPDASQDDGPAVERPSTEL

Plasmodium falciparum [8] = assay: Antiplasmodial activity against Plasmodium falciparum W2 assessed as reduction in plasmodial growth after 48 hrs by fluorescence based analysis; assay type: functional, organism-based; settings: W2, 48 h
J774.A1 [9] = assay: Anti-inflammatory activity against mouse J774.A 1 macrophage assessed as reduction in LPS-induced TNFalpha expression by RT-PCR analysis; assay type: functional; set-up: scale not given: the % may be the effect or the level left
J774.A1 [10] = assay: Anti-inflammatory activity against mouse J774.A 1 macrophage assessed as reduction in LPS-induced IL-6 expression by RT-PCR analysis; assay type: functional; set-up: scale not given: the % may be the effect or the level left
A549 = assay: Cytotoxicity against human A549 cells assessed as reduction in cell viability by SRB assay; assay type: functional, cell-based
[11] = Cytotoxicity activity against human Lucena 1 cells assessed as reduction in cell viability […] measured after 72 hrs by MTT assay; assay type: functional, cell-based; settings: Lucena 1, 72 h
Staphylococcus aureus [12] = assay: Antibacterial activity against methicillin-resitant Staphylococcus aureus N1 assessed as reduction in bacterial growth by microbroth dilution method; assay type: functional
Mus musculus = species on record: Mus musculus; assay: Reduction in hepatic steatosis in HFD-induced C57BL/6J mouse model assessed as reduction in serum LDL level […]; assay type: functional, organism-based
K562 = assay: Cytotoxicity activity against human K562 cells assessed as reduction in cell viability […] measured after 72 hrs by MTT assay; assay type: functional, cell-based; settings: K562, 72 h
[13] = Antioxidant activity assessed as DPPH radical scavenging activity incubated for 20 mins by spectrometry method; assay type: functional

SMILES: CC(C)=CC[C@]12COc3c(cc(O)c4c3C=CC(C)(C)O4)[C@H]1Oc1cc3c(cc12)OCO3
- Activity (KB): 56%

SMILES: COc1ccc2c(c1OC)OC1c3ccc(O[C@H]4O[C@H](CO)[C@@H](O)[C@H](O)[C@H]4O)cc3OCC21 (stereo partly drawn)
- Activity (BMDC): 10%

- IC50 [1]: 1.48 µM
SMILES: COc1ccc2c(c1)OCc1c-2oc2c3c(c(O)cc12)OC(C)(C)C=C3 [LESPEFLORIN H2]

SMILES: COc1cc2c(cc1CC=C(C)C)[C@@H]1Oc3cc(O)ccc3[C@@H]1CO2
- IC50 (Staphylococcus aureus [2]): 6.25 µg/mL (≈ 18.5 µM)

- IC50 [1]: 1.44 µM
SMILES: COc1c(O)cc2c(c1CC=C(C)C)O[C@H]1c3ccc(O)cc3OC[C@@H]21

SMILES: COc1ccc2c(c1)O[C@@H]1c3ccc(OC)cc3OC[C@H]21
- Activity (HL-60): 52.5%

SMILES: COc1ccc2c(c1OC)OC1c3ccc(O)cc3OCC21 (stereo not drawn)
- Activity (BMDC): 45%

SMILES: CC(C)=CCc1cc2c(cc1O)OC1c3ccc(O)cc3OCC21 (stereo not drawn)
- IC50 (CCRF-CEM): 3.73 µM

SMILES: COc1cc2c(cc1O)[C@@H]1Oc3c(cc(OC)c(OC)c3O)[C@@H]1CO2 [BRANDISIANIN F]
- IC50 (DLD-1): > 25 µM
- IC50 (HeLa): > 25 µM

SMILES: COc1ccc2c(c1CC=C(C)C)O[C@H]1c3ccc(OC(C)=O)cc3OC[C@@H]21
- IC50 (Plasmodium falciparum [3]): 34.8 µg/mL

SMILES: C=C(C)/C(C)=C/c1c(O)ccc2c1O[C@H]1c3ccc(O)cc3OC[C@@H]21
- IC50 at 48 h [4]: 9.4 µM
- IC50 at 48 h [5]: 23 µM

- IC50 (MCF7): > 100 µM
SMILES: COc1cc2c(cc1OCc1ccccc1)C1COC3C(=O)c4ccccc4C(=O)C3C1O2 (stereo not drawn)

- IC50 [7]: 30.5 µM
SMILES: COc1ccc2c(c1O)OC1c3ccc(O)c(OC)c3OCC21 (stereo not drawn)
- Activity [6]: 52.5%

SMILES: CC1(C)C=Cc2cc3c(cc2O1)OCC1c2ccc(O)cc2OC31 (stereo not drawn)
- IC50 (Plasmodium falciparum [3]): 19.4 µM
- IC50 (Plasmodium falciparum [8]): 17 µM

SMILES: COc1cc(Br)c2c(c1CC=C(C)C)O[C@H]1c3ccc(O)cc3OC[C@@H]21
- IC50 (Plasmodium falciparum [3]): 12.9 µg/mL

- IC50 (MCF7): 5.3 µM
SMILES: COc1cc2c(cc1O)OC1C2COC2C(=O)c3ccccc3C(=O)C21 (stereo not drawn)

- IC50 (MCF7): 7.8 µM
SMILES: COc1cc2c(cc1O)C1COC3C(=O)c4ccccc4C(=O)C3C1O2 (stereo not drawn)

SMILES: OC[C@H]1O[C@H](Oc2ccc3c(c2)OCC2c4cc5c(cc4OC32)OCO5)[C@H](O)[C@@H](O)[C@@H]1O (stereo partly drawn)
- Activity (J774.A1 [9]): 25%
- Activity (J774.A1 [10]): 25%

SMILES: CC1(C)Oc2cc3c(cc2CC1O)[C@@H]1Oc2cc(O)ccc2[C@@H]1CO3 (stereo partly drawn) [RAUTANDIOL A]
- IC50 (A549): > 5 µg/mL

SMILES: COc1cc2c(cc1O)[C@H]1COC3=C(C(=O)c4ccccc4C3=O)[C@H]1O2
- IC50 [11]: 2.57 µM

- IC50 [1]: 1.52 µM
SMILES: C=C/C(C)=C/c1c(O)ccc2c1OC[C@H]1c3cc(C)c(O)c(CC=C(C)C)c3O[C@@H]21

SMILES: CC(C)=CCc1cc2c(cc1O)OCc1c-2oc2c(CC=C(C)C)c(O)ccc12 [ERYCRYSTAGALLIN]
- MIC (Staphylococcus aureus [12]): 0.78 µg/mL (≈ 2 µM)
- IC50 (Staphylococcus aureus [2]): 6.25 µg/mL (≈ 16 µM)

SMILES: COc1ccc2c(c1)O[C@@H]1c3ccc(O)cc3OC[C@H]21
- Activity (HL-60): 57.4%

- IC50 (Mus musculus): 19.8 µM
SMILES: CC(C)(O)c1cc2cc3c(cc2o1)OC[C@@]1(O)c2ccc(O)cc2O[C@@H]31

SMILES: O=C1C2=C(C(=O)c3ccccc31)[C@H]1Oc3cc(OCc4ccccc4)c(OCc4ccccc4)cc3[C@H]1CO2
- IC50 [11]: 3.64 µM
- IC50 (K562): 3.46 µM

- IC50 [13]: 3.8 µM
SMILES: COc1c(O)cc2c(c1OC)O[C@H]1c3ccc(O)cc3OC[C@@H]21
